Experimental data from article PMC12444472, “BCI inhibits MKP3 by targeting the kinase-binding domain and disrupting ERK2 interaction” (The Journal of Biological Chemistry, 2025).
Where a chain is given by its changes, count along the chain named.

Tests used:
Assay in all cases: Phosphatase activity of MKP3 mutant toward pNPP with ERK2
Assay type in all cases: biochemical
Settings in all cases: 1 µM enzyme, 1 µM ERK2, 8 mM pNPP, 2.5 μM BCI
MKP3 R85G = biological target: T1, MKP3 R85G (Homo sapiens, UniProt Q16828, R85G)
T1 construct: MKP3(1–381) (MKP3^FL); made in house; host or cells: Escherichia coli BL21(DE3)
T1 sequence (Q16828 1-381 R85G): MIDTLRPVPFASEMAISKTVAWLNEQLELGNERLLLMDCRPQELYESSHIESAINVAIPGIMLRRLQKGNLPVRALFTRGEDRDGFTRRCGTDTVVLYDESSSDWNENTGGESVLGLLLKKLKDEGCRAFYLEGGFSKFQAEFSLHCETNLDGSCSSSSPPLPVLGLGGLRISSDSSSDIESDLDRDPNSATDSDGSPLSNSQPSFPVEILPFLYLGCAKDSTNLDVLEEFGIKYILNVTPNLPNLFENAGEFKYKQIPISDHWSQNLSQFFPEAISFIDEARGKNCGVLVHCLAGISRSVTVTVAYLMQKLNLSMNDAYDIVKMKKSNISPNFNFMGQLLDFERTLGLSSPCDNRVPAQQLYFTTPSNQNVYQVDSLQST
Procedure: (§1) The phosphatase activity of MKP3 toward pNPP was measured using continuous spectrophotometric assays, either in the absence or the presence of ERK2 at a 1:1 M ratio with MKP3. Experiments were conducted at 25 °C in a reaction mixture with a total volume of 1.8 ml, containing 50 mM Mops (pH 7.0), 100 mM NaCl, and 0.1 mM EDTA. MKP3 (1 μM) was preincubated with varying concentrations of the inhibitor BCI for 5 min before initiating the reaction by adding pNPP at concentrations ranging from 0 to 14 mM. Continuous absorbance changes were recorded using a PerkinElmer LAMBDA 45 spectrophotometer equipped with a magnetic stirrer in the cuvette holder. The production of p-nitrophenol was monitored at 410 nm using an extinction coefficient of 18,000 M^-1 cm^-1.
(§2) Figure S2. Inhibition of full-length MKP3 mutant activity by BCI. The phosphatase activities (v0) of full-length MKP3 and its mutants (E81G, R83G, R85G, R87G, and R89A) at 1 µM concentration were measured using continuous spectrophotometric assays with 8 mM pNPP as the substrate, in the presence of ERK2 (1 µM), either without or with 2.5 μM BCI. Data are presented as mean ± SD (n = 3). Reactions were performed at 25 °C in a total volume of 1.8 mL, in a buffer containing 50 mM MOPS (pH 7.0), 100 mM NaCl, and 0.1 mM EDTA.

MKP3 R83G = biological target: T2, MKP3 R83G (Homo sapiens, UniProt Q16828, R83G)
T2 construct: MKP3(1–381) (MKP3^FL); made in house; host or cells: Escherichia coli BL21(DE3)
T2 sequence (Q16828 1-381 R83G): T1 sequence (Q16828 1-381 R85G) with R83G, G85R
Procedure: as §1, §2

MKP3 R89A = biological target: T3, MKP3 R89A (Homo sapiens, UniProt Q16828, R89A)
T3 construct: MKP3(1–381) (MKP3^FL); made in house; host or cells: Escherichia coli BL21(DE3)
T3 sequence (Q16828 1-381 R89A): T1 sequence (Q16828 1-381 R85G) with G85R, R89A
Procedure: as §1, §2

MKP3 E81G = biological target: T4, MKP3 E81G (Homo sapiens, UniProt Q16828, E81G)
T4 construct: MKP3(1–381) (MKP3^FL); made in house; host or cells: Escherichia coli BL21(DE3)
T4 sequence (Q16828 1-381 E81G): T1 sequence (Q16828 1-381 R85G) with E81G, G85R
Procedure: as §1, §2

MKP3 T87G = biological target: T5, MKP3 T87G (Homo sapiens, UniProt Q16828, T87G)
T5 construct: MKP3(1–381) (MKP3^FL); made in house; host or cells: Escherichia coli BL21(DE3)
T5 sequence (Q16828 1-381 T87G): T1 sequence (Q16828 1-381 R85G) with G85R, T87G
Procedure: as §1, §2

Q: For `O=C1/C(=C/c2ccccc2)C(NC2CCCCC2)c2ccccc21` (centres unmarked) [BCI, (E)-2-benzylidene-3-(cyclohexylamino)-2,3-dihydro-1H-inden-1-one], which “enzymatic activity upon BCI addition compared with MKP3^WT” value (MKP3 R85G) is on record?
A: BCI inhibition comparable to MKP3^WT

Q: What about the “enzymatic activity upon BCI addition compared with MKP3^WT” value (MKP3 R83G) of the same compound?
A: higher enzymatic activity than WT MKP3

Q: And the “enzymatic activity upon BCI addition compared with MKP3^WT” value (MKP3 R89A)?
A: higher enzymatic activity than WT MKP3

Q: What about the “enzymatic activity upon BCI addition compared with MKP3^WT” value (MKP3 E81G) of the same compound?
A: higher enzymatic activity than WT MKP3

Q: And the “enzymatic activity upon BCI addition compared with MKP3^WT” value (MKP3 T87G)?
A: BCI inhibition comparable to MKP3^WT
